For one test, the system named is HCT-116. As to the kind of experiment: Cytotoxicity against human HCT116 cells after 48 hrs by MTT assay. To be noted: HCT-116, 48 h. The class given is functional, cell-based. In general terms: Tetrazolium dyes change colour on reduction, which living cells bring about.
For a further test, the system named is HL-60. The experiment in a line: Cytotoxicity against human HL60 cells after 48 hrs by MTT assay. The class given is functional, cell-based. To be noted: HL-60, 48 h.

In brackets after ≈: the same amount, converted by molar mass.

By IC50 is commonly meant the point on the concentration scale where inhibition reaches its midpoint. Low readings indicate inhibition by little substance, high ones a need for much substance. For `COc1ccc(C[C@H]2C(=O)N[C@@H](C)C(=O)N(C)[C@H]3Cc4ccc(cc4)Oc4cc(ccc4OC)C[C@@H](C(=O)N[C@H](C)C(=O)N[C@@H](C)C(=O)N2C)N(C)C3=O)cc1`, the IC50 was 0.0033 µg/mL (≈ 0.00428 µM) in the test on HCT-116 and 0.0025 µg/mL (≈ 0.00324 µM) in the test on HL-60.

For the compound `COc1ccc(C[C@H]2C(=O)N[C@@H](C)C(=O)N(C)[C@H]3Cc4ccc(cc4)Nc4cc(ccc4OC)C[C@@H](C(=O)N[C@H](C)C(=O)N[C@@H](C)C(=O)N2C)N(C)C3=O)cc1`, the IC50 in the test on HCT-116 was found to be 0.017 µg/mL (≈ 0.0221 µM); in the test with HL-60, 0.018 µg/mL (≈ 0.0234 µM).
